# Results reported in US20040038947A1, “Method of treating ischemia/reperfusion injury with nitroxyl donors” (The Gov. of the U.S. of America as represented by the Sec. …, priority 2002, published 2004).
# Tests used:
# Nitroxyl donation pH = type: physicochemical; conditions: donates from this pH to about 10
# From the text: “Nitroxyl donation pH” is the pH at which and above which a nitroxyl-donating compound donates nitroxyl.
# Further, compounds are easily tested for nitroxyl donation with routine experiments. Although it is impractical to directly measure whether nitroxyl is donated, several tests are accepted for determining whether a compound donates nitroxyl. For example, the compound of interest can be placed in solution, for example in water, in a sealed container. After sufficient time for disassociation has elapsed, such as from several minutes to several hours, the headspace gas is withdrawn and analyzed to determine its composition, such as by gas chromatography and/or mass spectroscopy. […] Nitroxyl donation also can be detected by exposing the target donor to metmyoglobin (Mb^3+). Nitroxyl reacts with Mb^3+ to form an Mb^2+-NO complex, which can be detected by changes in the ultraviolet/visible spectrum or by Electron Paramagnetic Resonance (EPR). […]
# Testing for nitroxyl donation in some cases is performed at a range of pHs to determine the nitroxyl donation pH of the nitroxyl-donating compound. […] After the lowest pH at which nitroxyl donation occurs in a first set of tests is found, additional tests can be performed with narrower ranges of pH around the first determined nitroxyl donation pH to obtain a more specific nitroxyl donation pH. […]
# anesthetized rabbits = conditions: administered during ischemia and 5 minutes prior to reperfusion; cited from earlier work
# rat renal tissue = conditions: administered during ischemia and 5 minutes before reperfusion; rat kidney; cited from earlier work
# Isolated rat hearts [1] = assay: Pre-ischemic cardiac function of isolated perfused rat hearts (Table 1); conditions: mean
# Experimental: (§1) Isolated heart perfusion. Each animal was anesthetized with 1 g/kg urethane i.p. 10 min after heparin (2,500 U, i.m.) treatment. The chest was opened, and the heart was rapidly excised, placed in ice-cold buffer solution and weighed. Isolated rat hearts were attached to the perfusion apparatus and retrogradely perfused with oxygenated buffer solution at 37° C. The hearts were instrumented as previously described in Rastaldo et al., “P-450 metabolite of arachidonic acid mediates bradykinin-induced negative inotropic effect,” Am. J. Physiol., 280:H2823-H2832 (2001), and Paolocci et al. “cGMP-independent inotropic effects of nitric oxide and peroxynitrite donors: potential role for nitrosylation,” Am. J. Physiol., 279: H1982-H1988 (2000). The flow was maintained constant (9±2 mL/min/g wet weight) to reach a typical coronary perfusion pressure of 85-90 mm Hg. A constant proportion of 10% of the flow rate was applied by means of one of two perfusion pumps (Terumo, Tokyo, Japan) using a 50 mL syringe connected to the aortic cannula. Drug applications (see Experimental Protocols) were performed by switching from the syringe containing buffer alone to the syringe of the other pump containing the drug dissolved in the vehicle at a concentration 10× to the desired final concentration in the heart. A small hole in the left ventricular wall allowed drainage of the thebesian flow, and a polyvinyl-chloride balloon was placed into the left ventricle and connected to an electromanometer for recording of left ventricular pressure (LVP). The hearts were electrically paced at 280-300 bpm and kept in a temperature-controlled chamber (37° C.). Coronary perfusion pressure (CPP) and coronary flow were monitored with a second electromanometer and an electromagnetic flow-probe, respectively, both placed along the perfusion line. Left ventricular pressure, coronary flow and coronary perfusion pressure were recorded using a TEAC R-71 recorder, digitized at 1000 Hz and analyzed off-line with DataQ-Instruments/CODAS software, which allowed quantification of the maximum rate of increase of LVP during systole (dP/dtmax).
# Hearts were perfused with Krebs-Henseleit solution gassed with 95% O2 and 5% CO2 of the following composition: 17.7 mM sodium bicarbonate, 127 mM NaCl, 5.1 mM KCl, 1.5 mM CaCl2, 1.26 mM MgCl2, 11 mM D-glucose, supplemented with 5 μg/mL lidocaine.
# (§2) Experimental Protocols. Hearts were allowed to stabilize for 30 min, and baseline parameters were recorded. Typically, coronary flow was adjusted within the first 10 min and kept constant from thereon. After 30 min stabilization, hearts were randomly assigned to one of the treatment groups reported below (n=12 in each group), and then subjected to 30 min global, no-flow ischemia, followed by 30 min of reperfusion (I/R) (see FIG. 1). Pacing of the hearts was stopped at the beginning of the ischemic period and restarted after the third minute of reperfusion.
# (§3) Hearts in the control group (Group 1) were perfused with buffer for an additional 29 min after stabilization. Group 2 hearts were exposed to AS (1 μM final concentration) for 19 min followed by a 10 min buffer wash-out period. Group 3 hearts were exposed to DEA/NO (0.5 μM final concentration) administered in the same manner as AS. The concentration of DEA/NO was only one half of that of AS since DEA/NO releases up to two moles of […] per mole of donor molecule. In Group 4, a train of three cycles of 3 min global ischemia followed by 5 min of reperfusion was applied after the stabilization phase, followed by a final 10 min buffer wash-out period (IPC protocol).
# (§4) Group 5 hearts were exposed to the vehicle (NaOH, final concentration 100 nM) used to dissolve both AS and DEA/NO. To test the influence of switching the myocardial redox state on AS-induced effects, in an additional group of hearts (Group 6) AS was co-infused with N-acetyl-L-cysteine (NAC, 4 mM final concentration). For comparison, hearts were also exposed to NAC alone (Group 7). […]
# Isolated rat hearts [2] = assay: Myocardial injury: infarct area by nitro blue tetrazolium staining
# Experimental: as §2, §3, §4
# To corroborate the data relative to myocardial injury, determined by LDH release, infarct areas were also assessed in a blinded fashion. […] The weight of the necrotic and non-necrotic tissues was then determined and the necrotic mass expressed as a percentage of total left ventricular mass.
# Isolated rat hearts [3] = assay: Myocardial injury: LDH release in coronary effluent during reperfusion; conditions: pre-treatment; control 686±14 U/g wet wt; FIG. 4A
# Experimental: as §2
# as §3, with “In Group 4, a train of three cycles of 3 min global ischemia followed by 5 min of reperfusion was applied after the stabilization phase, followed by a final 10 min buffer wash-out period (IPC protocol).” left out
# Assessment of myocardial injury. […] LDH release was measured as previously described by Bergmeyer & Bernt, “Methods of Enzymatic Analysis,” Verlag Chemie (1974). Data are expressed as cumulative values for the entire reflow period.
# Isolated rat hearts [4] = assay: Ventricular function (contracture, contractile recovery) of isolated rat hearts in 30 min global ischemia / 30 min reperfusion; conditions: for Maximal increment of LVEDP during reperfusion: compared to control, vehicle, NAC and NAC+AS treated hearts (p<0.05), FIG. 2B
# Experimental: as §1, §2, §3
# Group 5 hearts were exposed to the vehicle (NaOH, final concentration 100 nM) used to dissolve both AS and DEA/NO. […]
# isolated rat heart = assay: Example 2: coronary perfusion pressure during reperfusion; conditions: FIG. 6
# Experimental: FIG. 6 is a graph showing the coronary perfusion pressures for the IPA/NO intervention of FIG. 5 and an intervention in an isolated rat heart with a vehicle for the same protocol as was used with AS and vehicle in FIG. 1. IPA/NO is represented by diamonds; vehicle is represented by squares.
# Isolated heart perfusion. Each animal was anesthetized with 1 g/kg urethane i.p. 10 min after heparin (2,500 U, i.m.) treatment. The chest was opened, and the heart was rapidly excised, placed in ice-cold buffer solution and weighed. Isolated rat hearts were attached to the perfusion apparatus and retrogradely perfused with oxygenated buffer solution at 37° C. The hearts were instrumented as previously described in Rastaldo et al., “P-450 metabolite of arachidonic acid mediates bradykinin-induced negative inotropic effect,” Am. […] Coronary perfusion pressure (CPP) and coronary flow were monitored with a second electromanometer and an electromagnetic flow-probe, respectively, both placed along the perfusion line. Left ventricular pressure, coronary flow and coronary perfusion pressure were recorded using a TEAC R-71 recorder, digitized at 1000 Hz and analyzed off-line with DataQ-Instruments/CODAS software, which allowed quantification of the maximum rate of increase of LVP during systole (dP/dtmax). […]
# Isolated rat hearts [5] = assay: Example 2: infarct size after ischemia/reperfusion, different set of isolated rat hearts; conditions: same protocol as AS in Example 1, only one rat heart per intervention, FIG. 5
# Experimental: FIG. 5 is a graph showing infarct size following 30 min of global ischemia and 30 min reperfusion for interventions in a different set of isolated rat hearts for interventions with control; ischemic preconditioning (IP); IPA/NO; AS; and DEA/NO.
# To corroborate the data relative to myocardial injury, determined by LDH release, infarct areas were also assessed in a blinded fashion. At the end of the course (30 min reperfusion), each heart was rapidly removed from the perfusion apparatus, and the LV dissected into 2-3 mm circumferential slices. Following 15 min of incubation at 37° C. in 0.1% solution of nitro blue tetrazolium in phosphate buffer as described in Ma et al., “Opposite effects of nitric oxide and nitroxyl on postischemic myocardial injury,” Proc. Natl. Acad. Sci., 96:14617-14622 (1999), unstained necrotic tissue was separated from the stained viable tissue. The areas of viable and necrotic tissue were carefully separate by and independent observer (D. Mancardi, C. Penna, or R. Rastaldo) who was not aware of the origin of the hearts. The weight of the necrotic and non-necrotic tissues was then determined and the necrotic mass expressed as a percentage of total left ventricular mass.
# The same methods as employed in Example 1 were used to assess the ischemia/reperfusion injury reducing effects of the nitroxyl donor IPA/NO. […]
# [6] = End of stabilization period (baseline of the group, before treatment)
# [7] = Post-treatment (pre-ischemic), AS 1 μM, DEA/NO 0.5 μM, NAC 4 mM, 19 min then 10 min wash-out
SMILES,Nitroxyl donation pH (pH at and above which nitroxyl is donated) (Nitroxyl donation pH),CPP (coronary perfusion pressure) (Isolated rat hearts [1]; [6]),DP/dtmax (Isolated rat hearts [1]; [6]),Developed LVP (Isolated rat hearts [1]; [6]),LVEDP (left ventricular end-diastolic pressure) (Isolated rat hearts [1]; [6]),CPP (coronary perfusion pressure) (Isolated rat hearts [1]; [7]),DP/dtmax (Isolated rat hearts [1]; [7]),Developed LVP (Isolated rat hearts [1]; [7]),LVEDP (left ventricular end-diastolic pressure) (Isolated rat hearts [1]; [7]),LDH release into the coronary venous effluent during reperfusion (Isolated rat hearts [3]),Maximal increment of LVEDP during reperfusion (Isolated rat hearts [4]),also measured
"[Na+].[Na+].[O-][N+]([O-])=NO [AS, sodium trioxodinitrate]",about 3,89 mmHg,3145 mmHg/s,99 mmHg,9 mmHg,88 mmHg,3223 mmHg/s,98 mmHg,10 mmHg,significantly reduced,significantly lower,"Effect on myocardial ischemia/reperfusion injury (anesthetized rabbits): increased myocardial ischemia/reperfusion injury; Effect on neutrophil infiltration into renal tissue (rat renal tissue): contributed to neutrophil infiltration into the tissue; Infarct size reduction compared to controls (Isolated rat hearts [2]; AS 1 μM pre-ischemic, p<0.01 vs controls): 55%; Post-ischemic recovery of developed LVP (Isolated rat hearts [4]; 30 min ischemia, 30 min reperfusion, vs pre-ischemic value, controls 38%, AS 1 μM pre-ischemic, FIG. 3A): about 55%; Post-ischemic recovery of dP/dtmax (Isolated rat hearts [4]; 30 min ischemia, 30 min reperfusion, vs pre-ischemic value, controls 39%, AS 1 μM pre-ischemic, FIG. 3B): 57%"
"CC(C)N[N+]([O-])=N[O-].[Na+] [IPA/NO, isopropylamine/NO]",about 5.5,,,,,,,,,,,Coronary perfusion pressure during reperfusion (isolated rat heart): returned to normal; Infarct size reduction as compared to control (Isolated rat hearts [5]): about 36%
"CCN(CC)/[N+]([O-])=N/O.CCNCC [DEA/NO, diethylamine diazeniumdiolate]",,91 mmHg,3047 mmHg/s,98 mmHg,8 mmHg,90 mmHg,2976 mmHg/s,99 mmHg,9 mmHg,significantly reduced,significantly lower,"Protective effect: infarct size change vs controls (Isolated rat hearts [2]; DEA/NO 0.5 μM pre-ischemic, p<0.05 vs controls, weaker than AS or IPC): −30%; Recovering contractile function (developed LVP, dP/dtmax) after ischemia/reperfusion (Isolated rat hearts [4]; vs control group, p=0.08 for dP/dtmax, p=0.07 for developed LVP, DEA/NO 0.5 μM): less effective"
"CC(=O)N[C@@H](CS)C(=O)O [NAC, N-acetyl-L-cysteine]",,88 mmHg,2760 mmHg/s,89 mmHg,8 mmHg,88 mmHg,2481 mmHg/s,86 mmHg,10 mmHg,,,"Infarcted area, expressed as a percentage of the left ventricle (Isolated rat hearts [2]; 30 min global ischemia, 30 min reperfusion, control 39±2%, FIG. 4): 45+2%"
